From PubChem BioAssay AID248 (DTP/NCI, 2004)
Values joined by “and” are separate entries in the source; they are usually repeats but may differ in a detail not shown here. Equal entries are not always repeated. Inconclusive results and toxic doses are left out. No stated cut-off is given here; in the data, active means T/C of 150% or more; inactive means T/C below 125%.

Tested on: L1210 leukemia ip in BDF1 mice, survival T/C
Assay: NCI In Vivo Anticancer Drug Screen. Data for tumor model L1210 Leukemia (intraperitoneal) in B6D2F1 (BDF1) mice
Conditions: endpoint: mean survival time, higher = longer survival
Outline: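 Tumor cells were implanted, animals were treated, and survival was followed. The result divides the treated measurement by the vehicle-control measurement.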

[1] = dose: 50.0 mg/kg/injection, schedule: Q01DX009 (ip), vehicle: saline
[2] = dose: 100.0 mg/kg/injection, schedule: Q01DX001 (ip), vehicle: saline
[3] = dose: 100.0 mg/kg/injection, schedule: Q01DX009 (ip), vehicle: saline
[4] = dose: 100.0 mg/kg/injection, schedule: Q04DX003 (ip), vehicle: saline
[5] = dose: 100.0 mg/kg/injection, schedule: Q01DX009 (ip), vehicle: Klucel (hydroxypropylcellulose) (HPC)
[6] = dose: 100.0 mg/kg/injection, schedule: Q04DX003 (ip), vehicle: Klucel (hydroxypropylcellulose) (HPC)
[7] = dose: 200.0 mg/kg/injection, schedule: Q01DX009 (ip), vehicle: Klucel (hydroxypropylcellulose) (HPC)
[8] = dose: 200.0 mg/kg/injection, schedule: Q04DX003 (ip), vehicle: Klucel (hydroxypropylcellulose) (HPC)
[9] = dose: 400.0 mg/kg/injection, schedule: Q01DX009 (ip), vehicle: Klucel (hydroxypropylcellulose) (HPC)
[10] = dose: 400.0 mg/kg/injection, schedule: Q04DX003 (ip), vehicle: Klucel (hydroxypropylcellulose) (HPC)
[11] = dose: 200.0 mg/kg/injection, schedule: Q01DX009 (ip), vehicle: saline
[12] = dose: 400.0 mg/kg/injection, schedule: Q01DX009 (ip), vehicle: saline
[13] = dose: 100.0 mg/kg/injection, schedule: Q04DX003 (ip), vehicle: saline with Tween-80
[14] = dose: 200.0 mg/kg/injection, schedule: Q04DX003 (ip), vehicle: saline with Tween-80
[15] = dose: 400.0 mg/kg/injection, schedule: Q04DX003 (ip), vehicle: saline with Tween-80
[16] = dose: 100.0 mg/kg/injection, schedule: Q04DX002 (ip), vehicle: saline with Tween-80
[17] = dose: 100.0 mg/kg/injection, schedule: Q01DX001 (ip), vehicle: carboxymethylcellulose (CMC)
[18] = dose: 200.0 mg/kg/injection, schedule: Q01DX001 (ip), vehicle: carboxymethylcellulose (CMC)
[19] = dose: 400.0 mg/kg/injection, schedule: Q01DX001 (ip), vehicle: carboxymethylcellulose (CMC)
[20] = dose: 200.0 mg/kg/injection, schedule: Q04DX003 (ip), vehicle: saline
[21] = dose: 400.0 mg/kg/injection, schedule: Q04DX003 (ip), vehicle: saline

Measured: T/C

CCOCN(C)C
inactive: dose: 25.0 mg/kg/injection, schedule: Q01DX001 (ip), vehicle: saline 103 % of control | dose: 25.0 mg/kg/injection, schedule: Q01DX009 (ip), vehicle: saline 103 % of control | dose: 25.0 mg/kg/injection, schedule: Q04DX003 (ip), vehicle: saline 100 % of control | dose: 44.0 mg/kg/injection, schedule: Q01DX009 (ip), vehicle: saline 110 % of control | dose: 50.0 mg/kg/injection, schedule: Q01DX001 (ip), vehicle: saline 94 % of control | [1] 105 % of control | dose: 50.0 mg/kg/injection, schedule: Q04DX003 (ip), vehicle: saline 100 % of control | dose: 66.0 mg/kg/injection, schedule: Q01DX009 (ip), vehicle: saline 103 % of control | [2] 97 % of control and 107 % of control | [3] 97 % of control | [4] 105 % of control

CNc1ccc(S(=O)(=O)O)cc1
inactive: [5] 98 % of control | [6] 104 % of control | [7] 103 % of control | [8] 102 % of control | [9] 101 % of control | [10] 98 % of control

O=c1[nH]c2sccc2c(=O)n1O
inactive: dose: 100.0 mg/kg/injection, schedule: Q01DX001 (ip), vehicle: Klucel (hydroxypropylcellulose) (HPC) 106 % of control | dose: 200.0 mg/kg/injection, schedule: Q01DX001 (ip), vehicle: Klucel (hydroxypropylcellulose) (HPC) 97 % of control | dose: 400.0 mg/kg/injection, schedule: Q01DX001 (ip), vehicle: Klucel (hydroxypropylcellulose) (HPC) 97 % of control

Cc1cc(C(=O)C=[N+]=[N-])c(CN2C(=O)c3ccccc3C2=O)c(=O)n1C
inactive: dose: 100.0 mg/kg/injection, schedule: Q04DX003 (ip), vehicle: other 100 % of control | dose: 200.0 mg/kg/injection, schedule: Q04DX003 (ip), vehicle: other 93 % of control | dose: 400.0 mg/kg/injection, schedule: Q04DX003 (ip), vehicle: other 94 % of control

CC(=O)N(C)c1ccc(NC(=O)Nc2ccccc2C(F)(F)F)cc1
inactive: [5] 95 % of control | [7] 93 % of control | [9] 103 % of control

Cc1ccc(S(=O)(=O)N2CCC(Br)C(=O)c3ccccc32)cc1 (stereo not drawn)
inactive: [2] 94 % of control | [3] 107 % of control | dose: 200.0 mg/kg/injection, schedule: Q01DX001 (ip), vehicle: saline 107 % of control | [11] 109 % of control | dose: 400.0 mg/kg/injection, schedule: Q01DX001 (ip), vehicle: saline 100 % of control | [12] 97 % of control

COC(=O)c1ccc(Cn2ccc(=O)n(Cc3ccc(C(=O)OC)cc3)c2=O)cc1
inactive: [13] 91 % of control | [14] 88 % of control | [15] 90 % of control

NC(N)=N/C(N)=N/Nc1ccc([N+](=O)[O-])cc1[N+](=O)[O-]
inactive: dose: 12.5 mg/kg/injection, schedule: Q04DX002 (ip), vehicle: saline with Tween-80 98 % of control | dose: 25.0 mg/kg/injection, schedule: Q04DX002 (ip), vehicle: saline with Tween-80 93 % of control | [16] 88 % of control

Cc1cc(C)c(O)c(Br)c1
inactive: [16] 103 % of control | dose: 200.0 mg/kg/injection, schedule: Q04DX002 (ip), vehicle: saline with Tween-80 96 % of control | dose: 400.0 mg/kg/injection, schedule: Q04DX002 (ip), vehicle: saline with Tween-80 107 % of control

Nc1ccccc1SC1CC(=O)N(c2cccc3ccccc23)C1=O (stereo not drawn)
inactive: [6] 89 % of control | [10] 90 % of control

ClC1C2C=CC1CC2 (stereo not drawn)
inactive: [17] 90 % of control | [18] 90 % of control | [19] 93 % of control

COc1ccc(OC(=O)Nc2ccc(OC)cc2Cl)cc1
inactive: dose: 100.0 mg/kg/injection, schedule: Q04DX002 (ip), vehicle: Klucel (hydroxypropylcellulose) (HPC) 96 % of control | dose: 200.0 mg/kg/injection, schedule: Q04DX002 (ip), vehicle: Klucel (hydroxypropylcellulose) (HPC) 107 % of control | dose: 400.0 mg/kg/injection, schedule: Q04DX002 (ip), vehicle: Klucel (hydroxypropylcellulose) (HPC) 100 % of control

Cn1cc(Cc2ccccc2)c(=O)n(C)c1=O
inactive: [13] 100 % of control | [14] 100 % of control | [15] 106 % of control

COC(=O)CC1C(=O)C(C)(C(=O)OC)CCC1c1ccc(OC)cc1 (stereo not drawn)
inactive: [3] 96 % of control | [4] 100 % of control | [11] 90 % of control | [20] 94 % of control | [12] 93 % of control | [21] 94 % of control

Cc1ccc([N+](=O)[O-])cc1NC(=O)N(CCC#N)C1CCCCC1
inactive: [5] 101 % of control | [7] 105 % of control | [9] 95 % of control

Cc1cc[c]([Hg][I])cc1
inactive: dose: 6.25 mg/kg/injection, schedule: Q01DX009 (ip), vehicle: Klucel (hydroxypropylcellulose) (HPC) 93 % of control | dose: 12.5 mg/kg/injection, schedule: Q01DX009 (ip), vehicle: Klucel (hydroxypropylcellulose) (HPC) 94 % of control | dose: 25.0 mg/kg/injection, schedule: Q04DX002 (ip), vehicle: Klucel (hydroxypropylcellulose) (HPC) 87 % of control

O=C(O)CNCc1cccc(Cl)c1
inactive: [1] 94 % of control | [3] 101 % of control | [4] 95 % of control | [20] 93 % of control | [12] 101 % of control | [21] 102 % of control

CC1C(C(=O)O)CC([N+](=O)[O-])C(Cl)C1[N+](=O)[O-] (stereo not drawn)
inactive: dose: 25.0 mg/kg/injection, schedule: Q01DX001 (ip), vehicle: carboxymethylcellulose (CMC) 92 % of control | dose: 25.0 mg/kg/injection, schedule: Q04DX003 (ip), vehicle: carboxymethylcellulose (CMC) 95 % of control | dose: 50.0 mg/kg/injection, schedule: Q01DX001 (ip), vehicle: carboxymethylcellulose (CMC) 97 % of control | dose: 50.0 mg/kg/injection, schedule: Q01DX009 (ip), vehicle: carboxymethylcellulose (CMC) 95 % of control and 102 % of control | dose: 50.0 mg/kg/injection, schedule: Q04DX003 (ip), vehicle: carboxymethylcellulose (CMC) 98 % of control | [17] 102 % of control | dose: 100.0 mg/kg/injection, schedule: Q01DX009 (ip), vehicle: carboxymethylcellulose (CMC) 90 % of control | dose: 100.0 mg/kg/injection, schedule: Q04DX002 (ip), vehicle: carboxymethylcellulose (CMC) 101 % of control and 91 % of control | dose: 100.0 mg/kg/injection, schedule: Q04DX003 (ip), vehicle: carboxymethylcellulose (CMC) 102 % of control | dose: 200.0 mg/kg/injection, schedule: Q04DX002 (ip), vehicle: carboxymethylcellulose (CMC) 92 % of control and 105 % of control

CCCCC(/C=C1/CCCCC1=O)CC (stereo not drawn)
inactive: [5] 97 % of control | [6] 92 % of control | [7] 97 % of control | [8] 103 % of control | [10] 97 % of control

O=C(Nc1ccc(NC(=O)/C(Cl)=C/Cl)c2c1C(=O)c1ccccc1C2=O)/C(Cl)=C/Cl
inactive: [17] 92 % of control | [18] 92 % of control | [19] 100 % of control
